Results taken from patent US11583568B2, “Methods for administering angiotensin II” (La Jolla Pharma, LLC, priority 2017, dated 2023).
Like-named read-outs stand apart in the source and are kept apart here.

What was measured:
[1] = cited from earlier work
[2] = test system: patients suffering from hypotension; test: 28-day survival of hypotensive patients given angiotensin II or placebo, by baseline Ang I:Ang II ratio; format: in vivo, human
Method: The ratio of blood concentration of angiotensin I to blood concentration of angiotensin II in patients suffering from hypotension was determined and the patients were administered Angiotensin II or a placebo and their survival monitored for 28 days. In general, a low ratio of blood concentration of angiotensin I to blood concentration of angiotensin II (relative high ANG2 state) is protective across the patient population in multivariate analysis. When assessed by tertile, patients with a low ratio of blood concentration of angiotensin I to blood concentration of angiotensin II had better outcomes as assessed by a 28-day all-cause mortality as compared to high ratio of blood concentration of angiotensin I to blood concentration of angiotensin II (K-M survival curves, FIGS. 1 to 4). […] See also Table I and Table II.

Compound: CC[C@H](C)[C@H](NC(=O)[C@H](Cc1ccc(O)cc1)NC(=O)[C@@H](N)C(C)C)C(=O)N[C@@H](Cc1cnc[nH]1)C(=O)N1CCC[C@H]1C(=O)N[C@@H](Cc1ccccc1)C(=O)O [Angiotensin IV, Val-Tyr-Ile-His-Pro-Phe]
- Activity relative to angiotensin II ([1]; in words): less activity than angiotensin II

Compound: Arg-Val-Tyr-Ile-His-Pro-Phe (RVYIHPF; printed: Arg-Val-Tyr-Ile-His-Pro-Phe) [Angiotensin III]
- Activity relative to angiotensin II ([1]; of the activity of angiotensin II): approximately 40%

Compound: angiotensin II (DRVYIHPF; printed: Asp-Arg-Val-Tyr-Ile-His-Pro-Phe) [LJPC-501, text says patients were administered Angiotensin II or a placebo]
- Mortality at Day 28, Estimate (95% CI) ([2]; Baseline Ang I:Ang II ratio <1.63, n = 70): 41.6% (31.0%-54.0%)
- Mortality at Day 28, Estimate (95% CI) ([2]; Baseline Ang I:Ang II ratio ≥1.63, n = 72): 50.0% (39.1%-62.0%)
- Survival of patients with elevated Ang I:Ang II ratio ([2]; Elevated ratio patients given angiotensin II, compared with patients with a lower ratio): survival becomes comparable to patients who display a lower angiotensin I to angiotensin II ratio
- Treatment effect on 28-day all-cause mortality compared to control ([2]; Patients with the highest Ang I:Ang II ratio (relative low ANG2 state)): large treatment effect compared to control
- HR for mortality at Day 28, within treatment group ([2]; Within treatment group, baseline Ang I:Ang II ratio <1.63 vs ≥1.63): 0.80
